Values joined by “and” are separate entries in the source; they are usually repeats but may differ in a detail not shown here. Identical values can stand only once. Like-named read-outs stand apart in the source and are kept apart here. Values belong to the compound of their own block, whether it stands above or below them.
Experiments:
[1] = system: MUTZ-3 cells
[2] = cited from earlier work; for binary class: Table 4; for binary class (HP*): Table 1, based on [41] where available, HP 1-4=S, 5-6=NS, otherwise according to CLP
[3] = system: MUTZ-3 cells; assay: GARD random forest model for prediction of CLP categories (52 transcripts, Example A); settings: for predicted CLP: Suppl. Table 1, separate replicates in the test set; for GARD predicted CLP: Table 6, independent test set, majority voting across replicates
[4] = system: human skin; settings: cited from earlier work
[5] = system: MUTZ-3 cells; settings: for SVM DV: human
[6] = system: MUTZ-3 cells; remark: listed apart in the source
[7] = system: MUTZ-3 cells; assay: Cytotoxicity / viability by flow cytometry (propidium iodide); settings: Table 1, 24 hours exposure
[8] = system: MUTZ-3 cells; assay: GARD binary classification (SVM on GARD prediction signature, 200 transcripts); settings: Table 1; sensitizer if median calibrated SVM DV of replicates > 0

Compound: O=C(O)c1ccccc1 [benzoic acid]
- cytotox [1]: no
- binary class [2]: non-sens
- predicted CLP [3]: no cat
- GARD predicted CLP [3]: no cat

Compound: CCCCCCCCCCCCOS(=O)(=O)[O-].[Na+] [sodium dodecyl sulfate]
- HP [4]: 6
- Human potency [4]: 6
- SVM DV [5]: -1,52

Compound: CC(C=O)Cc1ccc(C(C)(C)C)cc1 (stereo not shown) [lilial]
- cytotox [1]: yes
- binary class (HP*) [2]: S
- binary class [2]: sens
- HP [4]: 4
- GARD binary prediction [5]: S

- GARD predicted CLP ([6]; human, 24 h): 1B
- predicted CLP ([6]; human, 24 h): 1B
Compound: CC=Cc1ccc(OC)cc1 [anethole]
- HP [4]: 5
- Human potency [41] [4]: 5

Compound: Nc1ccccc1 [aniline]
- cytotox [1]: no
- HP [4]: 4
- binary classification according to the established GARD model [5]: misclassified

- SVM DV ([5]; 24 h): 1,02
Compound: C=CCc1ccc(O)c(OC)c1 [eugenol]
- HP [4]: 3
- Human potency [4]: 3

- predicted CLP [3]: 1A
- GARD predicted CLP [3]: 1A
Compound: O=CCCCC=O [glutaraldehyde]
- binary class (HP*) [2]: S
- binary class [2]: sens
- cytotox [7]: yes
- GARD binary prediction [8]: S
- HP ([4]; Table 4): 2
- Human potency [41] ([4]; Table 6, test set): 2

Compound: Oc1ccccc1 [phenol]
- HP [4]: 6
- Human potency [4]: 6
- SVM DV [5]: -1,08

Compound: CC(C)(c1ccc(OCC2CO2)cc1)c1ccc(OCC2CO2)cc1 (stereo not shown) [bisphenol A-diglycidyl ether]
- cytotox [1]: yes
- GARD binary prediction [8]: S
- HP [4]: 3
- Human potency [41] [4]: 3
- predicted CLP [3]: 1A
- GARD predicted CLP [3]: 1A

Compound: c1ccncc1 [pyridine]
- cytotox [1]: no
- HP [4]: 5

Compound: NC[C@H]1O[C@H](O[C@H]2[C@H](O)[C@@H](O[C@H]3O[C@H](CO)[C@@H](O)[C@H](N)[C@H]3O)[C@H](N)C[C@@H]2N)[C@H](O)[C@@H](O)[C@@H]1O [kanamycin A]
- cytotox [1]: no
- binary class [2]: non-sens

- predicted CLP [3]: 1A (2×) and 1B
- GARD predicted CLP [3]: 1A
- CLP category predicted by the random forest model ([3]; test set, majority votes): 1A
Compound: CC(C)(O)CCCC1=CCC(C=O)CC1 (stereo not shown) [lyral]
- binary class (HP*) [2]: S
- binary class [2]: sens
- cytotox [7]: yes
- GARD binary prediction [8]: S
- human potency category ([4]; Basketter et al. [41]): 2
- HP ([4]; Table 4): 2
- Human potency [41] ([4]; Table 6, test set): 2

Compound: CCOc1cc(C=O)ccc1O [ethyl vanillin]
- GARD predicted CLP [6]: no cat
- predicted CLP [6]: no cat
- predicted CLP ([6]; human, 24 h): 1B

Compound: CCCCOCC1CO1 (stereo not shown) [butyl glycidyl ether]
- cytotox [1]: yes
- CLP category predicted by the random forest model ([6]; human, 24 h): 1A
- GARD predicted CLP ([6]; human, 24 h): 1A
- HP [4]: 3
- Human potency [41] [4]: 3
- human potency category [4]: 3
- binary classification according to the established GARD model [5]: misclassified

Compound: C=O [formaldehyde]
- HP [4]: 2
- Human potency [4]: 2
- SVM DV [5]: 2,32

Compound: O=C1C=CC(=O)C=C1 [p-benzoquinone]
- cytotox [7]: yes
- GARD binary prediction [5]: S
- predicted CLP [3]: 1A
- GARD predicted CLP [3]: 1A
